Experimental data published in patent US6326023A, “Synergistic anti-malarial formulation” (priority 2000, dated 2001).

Columns and labels:
[1] = test system: P. yoelii nigeriensis (MDR II); experiment: Resistance pattern of P. yoelii nigeriensis (MDR II) strain to antimalarials/antibiotics (oral) in Swiss mice; assay type: in vivo
Experimental: Swiss mice weighing 20±1 to 25±g of either sex and random laboratory bred at Central Drug Research Institute, Lucknow were used. Mice were routinely infected with 1×10^5 parasitized RBC intraperitoneally using sterile citrate saline as diluent for infected blood. […] From day 4 onwards, tail blood smears were examined after Giemsa staining and percent parasitaemia and mortality was recorded. The parasite (MDR strain) was lethal for Swiss mice and mice died in 6-8 days after developing parasitaemia above 40% to 100% infection of RBC, Mortality was 100% in mice.

[2] = im; cited from earlier work
P. falciparum = settings: rectal suppository, in 48-56 h; cited from earlier work
[3] = human, in vivo; cited from earlier work

C[C@H]1c2cccc(O)c2C(=O)C2=C(O)[C@]3(O)C(=O)C(C(N)=O)=C(O)[C@@H](N(C)C)[C@@H]3[C@@H](O)[C@@H]21 [Doxycycline]
Parasite response ([1]; 25 mg/kg × 4 days): Resistant

C=C[C@H]1C[N@@]2CC[C@H]1C[C@@H]2[C@@H](O)c1ccnc2ccc(OC)cc12 [Quinidine]
Parasite response ([1]; 400 mg/kg × 4 days): Resistant

O=C(O)c1cn(C2CC2)c2cc(N3CCNCC3)c(F)cc2c1=O [Ciprofloxacine]
Parasite response ([1]; 50 mg/kg × 4 days): Resistant

CCN(CC)CCCC(C)Nc1c2ccc(Cl)cc2nc2ccc(OC)cc12 (stereo not shown) [Mepacrine]
Parasite response ([1]; 128 mg/kg × 4 days): Resistant

C=C[C@H]1C[N@@]2CC[C@H]1C[C@H]2[C@H](O)c1ccnc2ccc(OC)cc12 [Quinine]
Parasite response ([1]; 400 mg/kg × 4 days): Resistant

C[C@H]1[C@H](OC(=O)CCC(=O)O)O[C@@H]2O[C@@]3(C)CC[C@H]4[C@H](C)CC[C@@H]1[C@@]24OO3 [artesunate]
LD50 [2]: 475 mg/kg

CN(C)C1C(=O)C(C(N)=O)=C(O)C2(O)C(=O)C3=C(O)c4c(O)cccc4C(C)(O)C3CC12 (stereo not shown) [Tetracycline]
Parasite response ([1]; 500 mg/kg × 4 days): Resistant

CCn1cc(C(=O)O)c(=O)c2cc(F)c(N3CCNCC3)cc21 [Norfloxacine]
Parasite response ([1]; 50 mg/kg × 4 days): Resistant

CCN(CC)CCCC(C)Nc1ccnc2cc(Cl)ccc12 (stereo not shown) [Chloroquine]
Parasite response ([1]; 128 mg/kg × 4 days): Resistant

CCN(CC)Cc1cc(Nc2ccnc3cc(Cl)ccc23)ccc1O [Amodiaquine]
Parasite response ([1]; 128 mg/kg × 4 days): Resistant

C[C@@H]1CC[C@H]2[C@@H](C)C(=O)O[C@@H]3O[C@@]4(C)CC[C@@H]1[C@]32OO4 [artemisinin]
Dose needed for complete parasite clearance (P. falciparum): 2800 mg

CN(C)[C@@H]1C(O)=C(C(N)=O)C(=O)[C@@]2(O)C(O)=C3C(=O)c4c(O)ccc(Cl)c4[C@@H](O)[C@H]3C[C@@H]12 [Demeclocycline]
Parasite response ([1]; 500 mg/kg × 4 days): Resistant

CC[C@H]1OC(=O)[C@H](C)[C@@H](O[C@H]2C[C@@](C)(OC)[C@@H](O)[C@H](C)O2)[C@H](C)[C@@H](O[C@@H]2O[C@H](C)C[C@H](N(C)C)[C@H]2O)[C@](C)(O)C[C@@H](C)C(=O)[C@H](C)[C@@H](O)[C@]1(C)O [Erythromycin]
Parasite response ([1]; 250 mg/kg × 4 days): Resistant

OC(c1cc(C(F)(F)F)nc2c(C(F)(F)F)cccc12)C1CCCCN1 (stereo not shown) [Mefloquine]
Parasite response ([1]; 128 mg/kg × 4 days): Resistant

CN(C)C1C(=O)C(C(N)=O)=C(O)C2(O)C(=O)C3=C(O)c4c(O)cccc4C(C)(O)C3C(O)C12 (stereo not shown) [Oxytetracycline]
Parasite response ([1]; 500 mg/kg × 4 days): Resistant

COc1cc(C)c2c(Oc3cccc(C(F)(F)F)c3)c(OC)cc(NC(C)CCCN)c2n1 (stereo not shown) [WR238605]
Parasite response ([1]; 10 mg/kg × 7 days): Resistant

CCc1nc(N)nc(N)c1-c1ccc(Cl)cc1 [Pyrimethamine]
Parasite response ([1]; 16 mg/kg × 4 days): Resistant

CCCCN(CCCC)CCC(O)c1cc2c(Cl)cc(Cl)cc2c2cc(C(F)(F)F)ccc12 (stereo not shown) [Halofantrine]
Parasite response ([1]; 32 mg/kg × 4 days): Resistant
Cardiotoxicity [3]: increased risk of cardiotoxicity
